Measured values as given in PMC10641818, “Development of First-in-Class Dual Sirt2/HDAC6 Inhibitors as Molecular Tools for Dual Inhibition of Tubulin Deacetylation” (Journal of Medicinal Chemistry, 2023).
pIC50: −log10 of the molar value.

Key:
[1] = biological target: T1, HDAC6 (Homo sapiens, UniProt Q9UBN7); experiment: HDAC6 degradation rescue experiment with PROTAC B4 (62) in MCF-7 cells (western blot); type: cell-based; set-up: endogenous in cells; host or cells: MCF-7; conditions: 20 μM pretreatment 30 min, then 62 (1 or 10 μM) 6 h
T1 sequence (Q9UBN7 1-1215): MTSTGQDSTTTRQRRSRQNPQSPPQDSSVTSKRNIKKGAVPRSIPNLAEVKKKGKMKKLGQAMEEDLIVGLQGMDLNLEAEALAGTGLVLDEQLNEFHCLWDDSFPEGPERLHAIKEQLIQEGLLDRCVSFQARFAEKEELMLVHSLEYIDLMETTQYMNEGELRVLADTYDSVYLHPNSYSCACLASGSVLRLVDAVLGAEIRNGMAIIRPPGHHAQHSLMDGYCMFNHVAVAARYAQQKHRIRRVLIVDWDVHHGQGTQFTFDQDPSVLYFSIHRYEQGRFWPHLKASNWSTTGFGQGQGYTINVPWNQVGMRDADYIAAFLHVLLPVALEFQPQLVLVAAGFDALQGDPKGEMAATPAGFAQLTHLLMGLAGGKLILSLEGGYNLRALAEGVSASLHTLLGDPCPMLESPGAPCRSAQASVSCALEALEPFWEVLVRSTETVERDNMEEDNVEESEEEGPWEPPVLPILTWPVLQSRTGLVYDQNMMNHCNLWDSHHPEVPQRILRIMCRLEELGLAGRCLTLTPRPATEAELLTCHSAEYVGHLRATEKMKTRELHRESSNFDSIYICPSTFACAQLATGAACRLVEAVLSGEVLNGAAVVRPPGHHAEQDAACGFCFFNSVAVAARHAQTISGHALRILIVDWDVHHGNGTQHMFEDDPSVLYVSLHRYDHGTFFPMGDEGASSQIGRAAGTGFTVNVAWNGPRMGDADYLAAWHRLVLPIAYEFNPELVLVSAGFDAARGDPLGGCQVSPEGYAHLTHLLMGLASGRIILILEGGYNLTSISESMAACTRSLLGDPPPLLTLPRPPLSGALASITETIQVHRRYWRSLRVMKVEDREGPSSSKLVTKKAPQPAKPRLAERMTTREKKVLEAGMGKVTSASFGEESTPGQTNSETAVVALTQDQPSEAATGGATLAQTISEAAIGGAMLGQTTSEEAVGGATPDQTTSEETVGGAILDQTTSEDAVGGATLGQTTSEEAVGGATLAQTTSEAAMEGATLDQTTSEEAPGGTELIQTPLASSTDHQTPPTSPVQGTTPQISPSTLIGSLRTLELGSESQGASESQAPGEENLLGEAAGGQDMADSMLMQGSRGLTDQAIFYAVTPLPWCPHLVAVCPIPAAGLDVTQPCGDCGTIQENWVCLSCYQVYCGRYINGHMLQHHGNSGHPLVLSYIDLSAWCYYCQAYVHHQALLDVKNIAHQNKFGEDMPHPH

[2] = biological target: HDAC4 (Homo sapiens, UniProt P56524); experiment: HDAC4 continuous fluorescence deacylation assay; type: biochemical
[3] = test system: histone H3 acetylation (marker of HDAC1-3 inhibition); experiment: Western blot on histone H3 hyperacetylation in MCF-7 cells; type: cell-based; conditions: 24 h, 10 µM
Description: Western blots on histone H3 hyperacetylation in MCF-7 cells were performed according to a previously published protocol.[72] In brief, MCF-7 were centrifuged (450g, 4 min, 22 °C) and lysed with cell extraction buffer (Thermo Fisher), supplemented with 0.1 mM PMSF, Halt Protease Inhibitor (Thermo Fisher), and Natriumorthovanadat (Thermo Fisher). Precast gels with a polymerization degree of 4–15% were used (Mini-PROTEAN TGX Stain-Free; Bio-Rad Laboratories GmbH, Munich, Germany). Proteins were transferred to Trans-Blot Turbo-PVDF membrane (Bio-Rad). The membrane was blocked with skimmed milk powder in Tris-buffered saline-Tween 20 (with 0.2% Tween 20) for 60 min, followed by three washing cycles of 10 min using Tris-buffered saline-Tween 20. Afterward, membranes were incubated with primary antibodies for ac.-Histon H3 (Cell Signal, rabbit) and GAPDH (Gene Tex, Irvine, USA, mouse) for a total of 60 min at room temperature and then incubated at 4 °C overnight. […] After rinsing of the secondary antibody, membranes were detected using ClarityECL Western Blotting Substrate (Bio-Rad). For quantitative determination, the StainFree technique was employed (Bio-Rad), as well as normalization, against the housekeeping protein GAPDH, which allows the imaging of whole lysates in SDS-PAGE before blotting and normalization against the total protein. […]

[4] = biological target: T2, Sirt5 (Homo sapiens, UniProt Q9NXA8); experiment: Sirt5 in vitro deacylation HPLC assay; type: biochemical
T2 sequence (Q9NXA8 37-310): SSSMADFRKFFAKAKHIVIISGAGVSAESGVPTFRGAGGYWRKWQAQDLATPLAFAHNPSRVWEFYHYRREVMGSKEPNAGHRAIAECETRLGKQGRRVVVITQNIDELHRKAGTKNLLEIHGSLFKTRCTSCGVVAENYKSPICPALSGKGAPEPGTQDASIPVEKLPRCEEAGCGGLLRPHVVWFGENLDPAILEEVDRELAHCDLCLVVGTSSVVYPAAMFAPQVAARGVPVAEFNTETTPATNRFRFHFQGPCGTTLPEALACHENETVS

[5] = biological target: HDAC5 (Homo sapiens, UniProt Q9UQL6); experiment: HDAC5 continuous fluorescence deacylation assay; type: biochemical
HDAC5, sequence (Q9UQL6 whole entry, species assumed): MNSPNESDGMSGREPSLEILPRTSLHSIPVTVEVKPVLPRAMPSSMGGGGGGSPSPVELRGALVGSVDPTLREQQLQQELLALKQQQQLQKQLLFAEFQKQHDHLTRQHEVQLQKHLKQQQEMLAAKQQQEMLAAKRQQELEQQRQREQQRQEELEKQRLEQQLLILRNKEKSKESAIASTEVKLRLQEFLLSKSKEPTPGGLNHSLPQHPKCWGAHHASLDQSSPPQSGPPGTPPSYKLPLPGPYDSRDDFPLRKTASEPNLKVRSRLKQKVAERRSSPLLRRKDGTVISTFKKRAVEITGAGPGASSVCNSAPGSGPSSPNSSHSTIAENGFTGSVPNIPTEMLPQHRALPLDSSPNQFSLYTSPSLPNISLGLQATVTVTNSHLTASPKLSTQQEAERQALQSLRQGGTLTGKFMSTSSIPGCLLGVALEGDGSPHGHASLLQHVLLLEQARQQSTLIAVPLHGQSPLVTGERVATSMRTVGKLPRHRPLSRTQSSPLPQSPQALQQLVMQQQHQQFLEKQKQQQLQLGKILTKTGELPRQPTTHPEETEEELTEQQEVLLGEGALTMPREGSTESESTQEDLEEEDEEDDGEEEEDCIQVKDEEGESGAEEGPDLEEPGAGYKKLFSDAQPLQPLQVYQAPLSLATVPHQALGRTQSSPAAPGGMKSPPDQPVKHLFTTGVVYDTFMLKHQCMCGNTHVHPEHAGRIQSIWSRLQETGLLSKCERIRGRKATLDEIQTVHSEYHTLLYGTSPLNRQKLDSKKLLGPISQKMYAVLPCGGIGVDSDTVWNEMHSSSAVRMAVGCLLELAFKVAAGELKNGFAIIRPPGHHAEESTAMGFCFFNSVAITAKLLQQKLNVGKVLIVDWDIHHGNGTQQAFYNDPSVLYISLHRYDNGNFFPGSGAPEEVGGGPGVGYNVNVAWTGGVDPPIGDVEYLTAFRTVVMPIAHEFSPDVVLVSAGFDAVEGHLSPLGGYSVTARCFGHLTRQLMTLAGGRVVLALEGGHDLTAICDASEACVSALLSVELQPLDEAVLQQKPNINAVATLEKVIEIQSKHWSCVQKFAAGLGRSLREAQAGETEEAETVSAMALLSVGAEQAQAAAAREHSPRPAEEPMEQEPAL

HDAC4, sequence (P56524 whole entry, species assumed): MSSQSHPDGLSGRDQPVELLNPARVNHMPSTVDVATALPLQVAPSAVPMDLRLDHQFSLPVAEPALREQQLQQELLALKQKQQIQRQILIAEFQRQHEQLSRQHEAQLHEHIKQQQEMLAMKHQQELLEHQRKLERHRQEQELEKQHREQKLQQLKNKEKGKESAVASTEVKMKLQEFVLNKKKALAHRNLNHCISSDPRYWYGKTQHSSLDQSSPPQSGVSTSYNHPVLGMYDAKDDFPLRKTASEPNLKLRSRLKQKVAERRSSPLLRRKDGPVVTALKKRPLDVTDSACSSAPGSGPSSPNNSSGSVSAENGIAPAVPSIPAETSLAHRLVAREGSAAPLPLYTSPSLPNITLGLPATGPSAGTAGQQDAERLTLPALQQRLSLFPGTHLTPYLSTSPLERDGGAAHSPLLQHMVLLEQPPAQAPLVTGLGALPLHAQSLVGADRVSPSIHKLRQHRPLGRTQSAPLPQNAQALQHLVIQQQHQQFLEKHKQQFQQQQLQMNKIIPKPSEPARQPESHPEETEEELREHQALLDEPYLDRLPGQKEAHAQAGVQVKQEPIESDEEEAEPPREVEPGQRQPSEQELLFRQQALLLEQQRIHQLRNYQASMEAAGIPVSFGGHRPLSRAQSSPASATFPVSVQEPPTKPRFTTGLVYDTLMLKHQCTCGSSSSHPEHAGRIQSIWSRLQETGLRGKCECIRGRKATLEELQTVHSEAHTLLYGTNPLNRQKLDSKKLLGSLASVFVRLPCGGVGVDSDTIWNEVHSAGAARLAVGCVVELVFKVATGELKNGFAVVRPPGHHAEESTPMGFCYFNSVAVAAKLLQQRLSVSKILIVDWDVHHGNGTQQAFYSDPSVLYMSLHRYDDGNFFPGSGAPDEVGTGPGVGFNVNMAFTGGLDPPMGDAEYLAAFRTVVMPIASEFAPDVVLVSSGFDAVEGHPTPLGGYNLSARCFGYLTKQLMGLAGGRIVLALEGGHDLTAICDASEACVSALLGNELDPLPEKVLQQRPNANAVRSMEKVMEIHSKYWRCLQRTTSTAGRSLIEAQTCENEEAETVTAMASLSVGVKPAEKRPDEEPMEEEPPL

- pIC50 [2]: < 4.70
- inhibition at 6 µM ([2]; @ 6 µM, read-out: HDAC4 percentual inhibition): 4%
- inhibition at 20 µM ([2]; @ 20 μM, read-out: HDAC4 percentual inhibition): 7%
- pIC50 [4]: < 3.30
- inhibition at 200 µM ([4]; @ 200 µM, read-out: Sirt5 percentual inhibition): -2%
- inhibition at 500 µM ([4]; @ 500 µM, read-out: Sirt5 percentual inhibition): -1%
- pIC50 [5]: < 5.22
- inhibition at 6 µM ([5]; @ 6 µM, read-out: HDAC5 percentual inhibition): 18%
- inhibition at 20 µM ([5]; @ 20 μM, read-out: HDAC5 percentual inhibition): 57%
Compound: CCCCN(Cc1ccc(C(=O)NO)cc1)C(=O)CCCCn1cc(COc2cccc(Cc3cnc(NC(=O)CSc4nc(C)cc(C)n4)s3)c2)nn1 [Compound 33, 4-((N-Butyl-5-(4-((3-((2-(2-((4,6-dimethylpyrimidin-2-yl)thio)acetamido)thiazol-5-yl)methyl)phenoxy)methyl)-1H-1,2,3-triazol-1-yl)pentanamido)methyl)-N-hydroxybenzamide]
- Rescue of HDAC6 from degradation induced by PROTAC 62 [1]: able to rescue HDAC6 from proteasomal degradation induced by 62
- Histone H3 hyperacetylation (cellular class I HDAC off-target inhibition) [3]: no significant off-target inhibition of class I
